# Patent publication USRE49873E1, “APP specific bace inhibitors (ASBIs) and uses thereof” (BUCK INSTITUTE FOR RESEARCH ON AGING, priority 2012, dated 2024)
# Entries after “also recorded” stand apart in the source; their conditions may differ.
# How the values were obtained:
# [1] = system: BACE1 cleavage of neuregulin1 in HEK293 cells; experiment: Neuregulin1 shedding assay (SEAP-NRG1-β1); format: cell-based, human; details: 10 μM, HEK293 cells co-expressing BACE1
# Procedure: (§1) Chinese Hamster Ovary (CHO) cells stably over-expressing human APP were treated with 10 μM Galangin or DMSO for 24 hr, then the cell lysates and conditioned media were collected. The levels of full length APP and β-CTF in the cell lysates and the levels of sAPPα in the conditioned media were detected by western blot. […] BACE1-dependent cleavage of SEAP-NRG1-β1 was evaluated by SEAP assays with supernatants of control human embryonic kidney 293 (HEK293) cells (SEAP-NRG1-β1) or HEK293 cells co-expressing BACE1 (SEAP-NRG1-β1+BACE1), treated with DMSO or Galangin (10 μM). An increase in shedding of the SEAP-NRG1-b1 fusion protein was measured upon BACE1 co-expression. Shedding in co-expressing cells was not suppressed by Galangin. Error bars indicate SEM. (N.S., p>0.05; n=4, student t test).
# A cDNA construct encoding a human placental secreted alkaline phosphatase (SEAP)-NRG1 (pAPtag5-NRG1-β1) fusion protein was transfected in HEK293 cells in a 6-well format with or without full-length wild-type BACE1 using Lipofectamine 2000 (Invitrogen) as described previously (Vassar et al. (1999) Science, 286: 735-741). After transfection the medium was replaced with DMEM containing 10% heat-inactivated Fetal Bovine Serum and incubated for 24 hr. SEAP activity was measured in the conditioned medium. […] The absorbance was read at 405 nm. […]
# [2] = molecular target: MBP-C125 APP (Homo sapiens, UniProt P05067); experiment: Nitrocellulose filter ligand-binding (ligand blot) assay; details: qualitative; UV and MALDI detection
# Sequence of MBP-C125 APP (P05067 646-770 limits assumed): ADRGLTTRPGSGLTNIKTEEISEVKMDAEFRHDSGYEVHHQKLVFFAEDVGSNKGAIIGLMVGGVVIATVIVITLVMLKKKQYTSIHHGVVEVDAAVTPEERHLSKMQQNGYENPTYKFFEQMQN
# Procedure: To explore the interaction of ASBIs with APP a ligand blot technique was used, where MBP-C125 APP was dot blotted on a nitrocellulose blot and binding to the protein was detected upon treatment with the bioflavonoids. A nitrocellulose filter-binding assay with bovine serum albumin (BSA) was used as a control. The binding of bioflavonoids was determined using both UV and MALDI mass spectrometric analysis.
# [3] = system: β-CTF production in CHO cells stably over-expressing human APP; experiment: β-CTF western blot in CHO cells over-expressing human APP; format: cell-based, Chinese Hamster; details: 10 μM, 24 hr, western blot of cell lysates
# Procedure: as §1
# The Chinese Hamster Ovary (CHO) cell line over-expressing human AβPP (7 W) was kindly provided by Dr. Edward Koo. Plasmid constructs were transiently transfected into HEK293T or 7 W cells with Lipofectamine 2000 (Invitrogen). Western Blot analysis was performed as previously described (Swistowski et al. (2009) J. Neurosci., 29: 15703-15712). Briefly, 48 hr after transfection, cells were harvested and lysed in NP-40 Cell Lysis Buffer (50 mM TrisHCl, pH 8.0, 150 mM NaCl and 1% NP-40). Cell lysates were mixed with 1×LDS loading buffer (Invitrogen) and 50 mM DTT, and boiled at 100° C. for 10 min. […]
# [4] = system: autophagy; details: Wen et al. (2012); cited from earlier work
# [5] = system: Aβ1-40 and Aβ1-42 levels in hippocampal/entorhinal cortical tissue; experiment: Pilot efficacy testing in PDAPP (J20) AD model mice, Aβ ELISA; format: in vivo; details: 40 mpk sc daily for 14 days, hippocampus and cortex
# Procedure: Galangin and progalangin (PG-1) were dissolved in 10% solutol/15% DMSO/75% polyethylene glycol (PEG). Stock solutions were prepared at 10 mg/ml for each compound and 100 ul was injected subcutaneously daily for 14 days at a dose of 40 mkd. There were 5 PDAPP AD model J20 mice in both the galangin and progalangin groups, and 9 vehicle-only treated J20 controls. Mice were anesthetized, blood collected for plasma, and brain tissue collected as described above 2 hours after injection on the last day of treatment. The right hemibrain was further microdissected to isolate hippocampus and entorhinal cortex and this combined tissue was used for biochemical analysis. The remaining tissue and plasma was sent to IAS for compound level analysis.
# Aβ1-42 and Aβ1-40 levels were determined using the hippocampal/entorhinal cortical tissue. Briefly, frozen tissue samples were weighed, and a 20% w/v sonicate prepared in 5M guandine-HCl/50 mM Tris, pH8. Sonication was performed with sample tubes in ice water, 4×5 seconds at 60 Hz, then 3×5 seconds at 80 Hz. Samples were then rotated at room temperature for 3 hours and frozen at −20° C. until assay. Invitrogen ELISA kits were used for Aβ1-40 and Aβ1-42 according to the manufacturer's instructions.
# [6] = molecular target: acetylcholine esterase (AChE) (Homo sapiens, UniProt P22303); details: Guo et al. (2010); cited from earlier work
# Sequence of acetylcholine esterase (AChE) (P22303 32-614): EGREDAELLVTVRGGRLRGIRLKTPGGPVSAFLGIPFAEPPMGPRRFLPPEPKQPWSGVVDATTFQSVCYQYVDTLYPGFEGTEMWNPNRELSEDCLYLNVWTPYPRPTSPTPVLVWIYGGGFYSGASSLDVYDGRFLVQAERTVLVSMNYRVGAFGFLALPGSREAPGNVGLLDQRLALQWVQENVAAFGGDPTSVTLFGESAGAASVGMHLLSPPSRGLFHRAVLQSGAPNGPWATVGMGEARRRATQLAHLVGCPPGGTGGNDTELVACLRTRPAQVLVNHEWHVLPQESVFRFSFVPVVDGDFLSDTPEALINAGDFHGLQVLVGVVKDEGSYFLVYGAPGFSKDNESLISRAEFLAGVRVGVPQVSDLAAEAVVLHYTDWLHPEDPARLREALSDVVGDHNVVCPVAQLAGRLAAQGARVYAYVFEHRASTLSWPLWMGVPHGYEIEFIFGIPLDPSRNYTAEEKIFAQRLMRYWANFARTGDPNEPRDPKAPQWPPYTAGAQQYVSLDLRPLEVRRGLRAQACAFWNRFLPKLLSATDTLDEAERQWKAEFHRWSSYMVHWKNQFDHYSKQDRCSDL
smiles,measurement,setting,value
O=c1c(O)c(-c2ccccc2)oc2cc(O)cc(O)c12 [Galangin],BACE1-dependent shedding of SEAP-NRG1-β1,[1],does not inhibit BACE1 cleavage of neuregulin1
same,binding to the APP substrate,[2],shows binding to the APP substrate
same,β-CTF production,[3],inhibits β-CTF production
same,induction of autophagy,[4],induce autophagy
same,Aβ1-42 (Aβ42) levels in brain,[5],unchanged
same,Aβ1-40 (Aβ40) levels in brain,[5]; 40 mg/kg,some reduction of Aβ40; also recorded: slightly lower
same,inhibitor of acetylcholine esterase (AChE),[6],inhibitor of acetylcholine esterase (AChE)
